Assay results taken from PMC7956819, “Peptides from the Intestinal Tract of Breast Milk-Fed Infants Have Antimicrobial and Bifidogenic Activity” (International Journal of Molecular Sciences, 2021).
Peptide text beside a SMILES is read from it.

Tests used:
Format in all cases: cell-based
[1] = system: Bifidobacterium longum spp. infantis ATCC 15697; conditions: ATCC 15697, 18 h
Experimental: (§1) The bioactivity of the intestinal peptide extracts was determined via the microdilution method. Antimicrobial activity was screened with E. coli and S. aureus as representatives of common infant pathogens responsible for infectious disease, and growth-promoting activity was screened with B. infantis, one of the ideal colonizers of the infant gut. For the antimicrobial assays, colonies of bacteria were selected and inoculated in 2 mL of MHB and incubated at 37 °C for 24 h. The inoculum was diluted to 2 × 10^5 CFU/mL with MHB. For the growth-promoting assays, 100 µL of stock bacteria were inoculated in 10 mL of reinforced clostridial broth supplemented with 0.1% ascorbic acid and incubated under anaerobic conditions (BD BBL™ GasPak™) at 37 °C for 24 h. Optical density was measured at 600 nm, and the inoculum was diluted to an optical density of 0.05 with reinforced clostridial broth.
(§2) The intestinal peptide extracts were serially diluted with PBS to concentrations of 1×, 1/2×, 1/4×, 1/8×, 1/16×, 1/32×, 1/64×, and 1/128×. In a 96-well plate, 50 µL of each dilution was incubated with 50 µL of inoculum in duplicate, along with a negative control of 50 µL of inoculum with 50 µL of pure PBS and a sterility test of 50 µL of peptide with 50 µL of broth. Growth was determined by optical density readings at 600 nm (OD600) taken at 0 h (T0) and 18 h (T18). The following equation was used to determine percent inhibition or promotion of bacterial growth:
(§3) Candidate peptides were synthesized and dissolved in sterile nanopure water. Antimicrobial and growth-promoting assays were carried out as described above with serial dilutions ranging from […] to 15.6 μg/mL. Minimum inhibitory concentration (MIC) was determined by the concentration at which all visible growth was inhibited.

[2] = system: Escherichia coli BL21 (DE3); conditions: BL21, 18 h
Experimental: as §1, §2, §3

[3] = system: Staphylococcus aureus ATCC 12600; conditions: ATCC 12600, 18 h
Experimental: as §1, §2, §3

| SMILES | B. infantis MIC [1] | E. coli MIC [2] | S. aureus MIC [3] |
| --- | --- | --- | --- |
| CC[C@H](C)[C@H](NC(=O)[C@@H]1CCCN1C(=O)[C@H](CC(N)=O)NC(=O)[C@H](Cc1c[nH]cn1)NC(=O)[C@@H](NC(=O)[C@@H]1CCCN1C(=O)[C@H](C)NC(=O)[C@@H](N)CC(C)C)C(C)C)C(=O)O [Peptide 4] (H-LAPVHNPI-OH) | >3000 µg/mL | 3000 µg/mL | 3000 µg/mL |
| CC[C@H](C)[C@H](NC(=O)[C@@H]1CCCN1C(=O)[C@H](CCC(N)=O)NC(=O)[C@@H]1CCCN1C(=O)[C@@H](NC(=O)[C@H](CCC(N)=O)NC(=O)[C@H](CCC(N)=O)NC(=O)[C@H](CCSC)NC(=O)[C@H](CC(C)C)NC(=O)[C@@H]1CCCN1C(=O)[C@H](CCC(N)=O)NC(=O)[C@H](CC(C)C)NC(=O)[C@H](CC(C)C)NC(=O)[C@@H]1CCCN1C(=O)[C@H](CC(C)C)NC(=O)[C@@H]1CCCN1C(=O)[C@H](CC(C)C)NC(=O)[C@@H](N)Cc1c[nH]cn1)C(C)C)C(=O)O [Peptide 1] (H-HLPLPLLQPLMQQVPQPI-OH) | >3000 µg/mL | >3000 µg/mL | >3000 µg/mL |
| CC[C@H](C)[C@H](NC(=O)[C@@H]1CCCN1C(=O)[C@@H](N)CCC(=O)O)C(=O)N1CCC[C@H]1C(=O)N[C@@H](CC(C)C)C(=O)N[C@@H](CCC(=O)O)C(=O)N[C@@H](CO)C(=O)N[C@@H](CCCNC(=N)N)C(=O)N[C@@H](CCC(=O)O)C(=O)N[C@@H](CCC(=O)O)C(=O)O [Peptide 5] (H-EPIPLESREE-OH) | >3000 µg/mL | 2500 µg/mL | 2500 µg/mL |
| CSCC[C@H](NC(=O)[C@@H](N)CC(=O)O)C(=O)N[C@@H](CC(C)C)C(=O)N[C@H](C(=O)N[C@H](C(=O)N[C@@H](CC(=O)O)C(=O)N1CCC[C@H]1C(=O)N[C@@H](CCCCN)C(=O)O)C(C)C)C(C)C [Peptide 9] (H-DMLVVDPK-OH; N-terminus and C-terminus assumed) | >3000 µg/mL | 3000 µg/mL | 3000 µg/mL |
| CC[C@H](C)[C@H](NC(=O)[C@@H](NC(=O)[C@@H]1CCCN1C(=O)[C@H](CC(C)C)NC(=O)[C@H](C)NC(=O)[C@H](CO)NC(=O)[C@@H](NC(=O)[C@@H](N)CCSC)[C@@H](C)O)[C@@H](C)CC)C(=O)N[C@@H](CCC(N)=O)C(=O)N[C@@H](CCCCN)C(=O)O [Peptide 10] (H-MTSALPIIQK-OH) | >3000 µg/mL | >3000 µg/mL | >3000 µg/mL |
| CC(C)C[C@H](NC(=O)[C@H](CC(=O)O)NC(=O)[C@H](CCCCN)NC(=O)[C@@H](N)Cc1ccccc1)C(=O)NCC(=O)N[C@@H](CCC(=O)O)C(=O)N[C@@H](CCC(=O)O)C(=O)N[C@@H](CC(N)=O)C(=O)N[C@@H](Cc1ccccc1)C(=O)N[C@@H](CCCCN)C(=O)O [Peptide 11] (H-FKDLGEENFK-OH) | >3000 µg/mL | 3000 µg/mL | 3000 µg/mL |
| NCCCC[C@H](NC(=O)CNC(=O)[C@H](Cc1ccccc1)NC(=O)[C@H](CCCCN)NC(=O)[C@@H](N)CCC(=O)O)C(=O)N[C@@H](CC(=O)O)C(=O)N[C@@H](CCCCN)C(=O)N[C@@H](CO)C(=O)N1CCC[C@H]1C(=O)N[C@@H](CCCCN)C(=O)N[C@@H](Cc1ccccc1)C(=O)N[C@@H](CCC(N)=O)C(=O)O [Peptide 8] (H-EKFGKDKSPKFQ-OH) | >3000 µg/mL | 3000 µg/mL | 3000 µg/mL |
| CC(C)C[C@H](NC(=O)[C@H](CC(N)=O)NC(=O)[C@@H]1CCCN1C(=O)[C@@H](N)CCCNC(=N)N)C(=O)N[C@@H](Cc1c[nH]cn1)C(=O)N1CCC[C@H]1C(=O)N[C@@H](CO)C(=O)O [Peptide 7] (H-RPNLHPS-OH) | >3000 µg/mL | 3000 µg/mL | 3000 µg/mL |
| CC[C@H](C)[C@H](NC(=O)[C@H](CCC(N)=O)NC(=O)[C@@H](N)Cc1c[nH]cn1)C(=O)N[C@@H](Cc1ccc(O)cc1)C(=O)N1CCC[C@H]1C(=O)N[C@H](C(=O)N[C@H](C(=O)N[C@@H](CCC(N)=O)C(=O)N1CCC[C@H]1C(=O)N[C@@H](CC(C)C)C(=O)O)[C@@H](C)O)C(C)C [Peptide 3] (H-HQIYPVTQPL-OH; N-terminus and C-terminus assumed) | >3000 µg/mL | >3000 µg/mL | >3000 µg/mL |
